Experimental data taken from paper PMC8546421, “Molecular modelling of the FOXO4-TP53 interaction to design senolytic peptides for the elimination of senescent cancer cells” (EBioMedicine, 2021).
Read-outs that look alike come from different tables or passages of the source. Where no end group is shown, it is not given here.

What was measured:
FOXO4 = molecular target: T1, FOXO4 (Homo sapiens, UniProt P98177); experiment: Bio-layer Interferometry, FOXO4; type: binding
T1 construct: purchased OriGene Technologies TP760655
Method: Bio-layer Interferometry (BLI) measurements were performed on a ForteBio Octet RED384 instrument (Molecular Devices) using ForteBio Data Acquisition software 9.0 and ForteBio biosensors (Molecular Devices) according to the manufacturer's instructions. Kinetic assays were carried out at 30°C using settings of Standard Kinetics Acquisition rate (5.0 Hz, averaging by 20) at a sample plate shake speed of 1,000 rpm. Streptavidin sensors (SA) (ForteBio) equilibrated in PBS were mock loaded (no ligand reference sensor) or loaded with 50 nM of N- terminal biotinylated ES2 peptide (New England Peptide, Inc.) with an approximate response of 1 nm. Ligand loaded SA sensors equilibrated in Kinetics buffer (ForteBio) to establish a baseline, were dipped into wells containing 2-fold dilutions of TP53 (Millipore Sigma Aldrich; Cat# 23-034), FOXO4 (OriGene Technologies; Cat# TP760655) or GFP analytes in kinetics buffer, or buffer alone (reference sample). Increasing concentrations of analytes ranging from 6.2 - 200 nM were allowed to associate for 240 secs, followed by 600 sec dissociation step where the TP53/FOXO4-bound sensors were washed with kinetics buffer. Binding curves were analysed using ForteBio Data Analysis HT 10.0 evaluation software. To control for background signal and non-specific binding, raw experimental data were processed by subtracting reference biosensor and reference sample (no ligand). Processed data from at least six different concentrations of analyte binding were globally fit to a 1:1 Langmuir binding model to calculate the association rate constant ka, the dissociation rate constant kd to achieve R^2 > 0.90. Equilibrium dissociation constants KD which defines the strength of the interaction or affinity was calculated as the kinetic dissociation rate constant divided by the kinetic association rate constant.

FOXO4 foci = experiment: Immunofluorescence / quantitative imaging of FOXO4 foci; type: cell-based, human
Method: For all immunofluorescence experiments, cells were plated in 96-well plates (Cellvis P96-1.5P). At the end of each experiment, cells were washed once with PBS and then fixed with 4% paraformaldehyde for 10 minutes at room temperature. For experiments with caspase-3/7 staining, the Caspase-3/7 reagent (Thermo Scientific Cat# C10723) was added to live cells for 30 minutes prior to fixation. Fixed cells were washed with PBS and then permeabilized with ice-cold methanol at 4°C for 10 minutes. Cells were washed with PBS and then blocked for 30 minutes with 1% Bovine Serum Albumin (BSA) in PBS. […]
Quantitative imaging was performed as described with the following exceptions. […] Quantification of fluorescence intensities was performed using CellProfiler. Briefly, the DAPI staining was used to create a nuclear mask, and fluorescence intensities of the stained markers (FOXO4, CDKN2A, CDKN1A, and TP53) and FOXO4 foci were measured within the nuclear mask. DAPI fluorescence intensity was also quantified and used for DNA content measurements. […]

T1 sequence (P98177 whole entry): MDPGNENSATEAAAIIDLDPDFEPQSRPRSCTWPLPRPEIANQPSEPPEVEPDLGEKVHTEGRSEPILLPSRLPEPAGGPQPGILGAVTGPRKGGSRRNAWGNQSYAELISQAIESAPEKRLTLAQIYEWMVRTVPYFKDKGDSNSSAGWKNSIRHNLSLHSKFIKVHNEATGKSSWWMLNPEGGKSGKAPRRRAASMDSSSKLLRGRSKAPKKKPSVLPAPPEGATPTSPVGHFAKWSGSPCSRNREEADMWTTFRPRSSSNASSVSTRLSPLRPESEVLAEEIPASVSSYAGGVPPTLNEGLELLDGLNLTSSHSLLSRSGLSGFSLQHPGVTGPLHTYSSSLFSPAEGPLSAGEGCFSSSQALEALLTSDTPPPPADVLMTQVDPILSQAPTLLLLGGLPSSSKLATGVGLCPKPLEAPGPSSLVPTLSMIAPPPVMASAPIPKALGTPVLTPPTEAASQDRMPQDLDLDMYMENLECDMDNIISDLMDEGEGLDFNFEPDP

## PRKGGRRRRAWGRRRRRRRRRRRRRRAPRKRLTLA [ES2]
FOXO4; BLI KD ratio
  affinity for FOXO4 compared to TP53: approximately 4 fold
FOXO4; BLI, 1:1 Langmuir binding model, read-out: association rate ka
  kon: 117000 M⁻¹ s⁻¹
FOXO4; BLI, biotinylated ES2 immobilized on streptavidin sensors, analyte 6.25-200 nM, 30°C, global 1:1 Langmuir fit
  kd: 7.7e-05 ± 7.2e-07 s⁻¹
FOXO4; BLI, biotinylated ES2 immobilized on streptavidin sensors, analyte 6.25-200 nM, 30°C, global 1:1 Langmuir fit, read-out: ka
  kon: 120000 M⁻¹ s⁻¹
FOXO4; BLI, biotinylated ES2 immobilized on streptavidin sensors, analyte 6.25-200 nM, 30°C, kd/ka
  Kd: 0.66 ± 0.01 nM
FOXO4 foci; BODIPY-labelled ES2, A375 cells, 2 h
  concentration at which accumulation, co-localization with FOXO4 and disruption of focus formation observed: ≥ 8 µM
FOXO4 foci; senescent A375 cells, ES2 8 µM for 4 h
  FOXO4 foci after ES2 addition: caused a loss of FOXO4 foci
